Results on 28 compounds are retold here after patent publication US20240383852A1, “ANTI-VIRAL COMPOUNDS” (INFEX Therapeutics Limited, priority 2021, published 2024).

Structures are written as SMILES. Counter-ions that a name gives are not always drawn. Like-named read-outs stand apart in the source and are kept apart here. Bounds are passed on as bounds.

In one data set the target is T1, SARS-CoV-2 PLpro (Severe acute respiratory syndrome coronavirus 2, UniProt P0DTD1).
T1 construct: containing 60 nM papain-like protease
As to the kind of experiment: biochemical.

For data set [1], the system named is human Hep G2 cells (ATCC HB-8065). The data set is described as follows: Cytotoxicity in Hep G2 cells (CellTiter-Glo). The format is cell-based. (In general: Cellular ATP, detected with luciferase, serves as a proxy for viable cell number.)
Setting [2] is: 60 nM papain-like protease, 50 μM Z-RLRGG-AMC, pH 7.5, 37° C., read-out: SARS-CoV-2 PLpro IC50.
Setting [3] is: Hep G2 cells, 100 μM test article, 24-hour exposure.

With `Cc1ccc(N2CCN(C)CC2)cc1C(=O)N[C@H](C)c1cccc(-c2ccccc2)c1` [Example 27, 2-Methyl-5-(4-methylpiperazin-1-yl)-N-[(1R)-1-(3-phenylphenyl)ethyl]benzamide], on SARS-CoV-2 PLpro (setting [2]), the IC50 (in general, the concentration that gives 50% inhibition) was below 2 µM. Moreover, the “% Cell Viability” value in data set [1] (setting [3]) is recorded as 1.0%.

On to `Cc1ccc(N2CCN(CC3CC3)CC2)cc1C(=O)N[C@H](C)c1cccc2ccccc12` [Example 118, 5-[4-(Cyclopropylmethyl)piperazin-1-yl]-2-methyl-N-[(1R)-1-(1-naphthyl)ethyl]benzamide], for which the IC50 on SARS-CoV-2 PLpro (setting [2]) was below 2 µM. The “% Cell Viability” value in data set [1] (setting [3]) amounted to 6.6%.

As for `COc1ccc(-c2cccc([C@@H](C)NC(=O)c3cc(N4CCN(C)CC4)ccc3C)c2)cc1` [Example 40, N-[(1R)-1-[3-(4-Methoxyphenyl)phenyl]ethyl]-2-methyl-5-(4-methylpiperazin-1-yl)benzamide], the IC50 at SARS-CoV-2 PLpro (setting [2]) was below 2 µM. Also, the “% Cell Viability” value in data set [1] (setting [3]) stood at 0.9%.

In the case of `Cc1ccc(N2CCN(C)CC2)cc1C(=O)N[C@H](C)c1ccc(N2CCNCC2)cc1` [Example 106, 2-Methyl-5-(4-methylpiperazin-1-yl)-N-[(1R)-1-(4-piperazin-1-ylphenyl)ethyl]benzamide], the IC50 at SARS-CoV-2 PLpro (setting [2]) is below 5 µM. Besides, in data set [1] (setting [3]), the “% Cell Viability” value came out at 87.4%.

For `Cc1ccc(N2CCN[C@@H](C(C)C)C2)cc1C(=O)N[C@H](C)c1cccc2ccccc12` [Example 19, 5-[(3S)-3-Isopropylpiperazin-1-yl]-2-methyl-N-[(1R)-1-(1-naphthyl)ethyl]benzamide], the IC50 on SARS-CoV-2 PLpro (setting [2]) was below 2 µM. For the same compound, in data set [1] (setting [3]), the “% Cell Viability” value is reported as 1.0%.

On to `Cc1ccc(N2CCN(C)CC2)cc1C(=O)N[C@H](C)c1cccc(-c2cccc(C(=O)NCCCN(C)C)c2)c1` [Example 93, N-[(1R)-1-[3-[3-[3-(Dimethylamino)propylcarbamoyl]phenyl]phenyl]ethyl]-2-methyl-5-(4-methylpiperazin-1-yl)benzamide], for which the IC50 at SARS-CoV-2 PLpro (setting [2]) was below 2 µM. For the same compound, the “% Cell Viability” value in data set [1] (setting [3]) came out at 41.9%.

Turning to `Cc1ccc(N2C[C@H]3C[C@@H]2CN3C)cc1C(=O)N[C@H](C)c1cccc(Br)c1` [Example 123, N-[(1R)-1-(3-bromophenyl)ethyl]-2-methyl-5-[(1R,4R)-5-methyl-2,5-diazabicyclo[2.2.1]heptan-2-yl]benzamide], at SARS-CoV-2 PLpro (setting [2]), the IC50 is below 2 µM. The “% Cell Viability” value in data set [1] (setting [3]) is on record as 32.9%.

On to `COc1ccc([C@@H](C)NC(=O)c2cc(N3CCN(C)CC3)ccc2C)cc1-c1csc(C(=O)N(C)C)c1` [Example 285, 4-[2-Methoxy-5-[(1R)-1-[[2-methyl-5-(4-methylpiperazin-1-yl)benzoyl]amino]ethyl]phenyl]-N,N-dimethyl-thiophene-2-carboxamide], for which the IC50 at SARS-CoV-2 PLpro (setting [2]) was below 2 µM. The “% Cell Viability” value in data set [1] (setting [3]) is 72.2%.

As to `COc1cc(-c2cn(C)nc2C)cc([C@@H](C)NC(=O)c2cc(C3CCN(C)CC3)ccc2C)c1` [Example 301, N-[(1R)-1-[3-(1,3-Dimethylpyrazol-4-yl)-5-methoxy-phenyl]ethyl]-2-methyl-5-(1-methyl-4-piperidyl)benzamide], the IC50 on SARS-CoV-2 PLpro (setting [2]) is below 2 µM. Further, in data set [1] (setting [3]), the “% Cell Viability” value is 77.5%.

Consider `COCCNC(=O)c1cc(-c2cccc([C@@H](C)NC(=O)c3cc(N4CCN(C)CC4)ccc3C)c2)cs1` [Example 100, N-(2-Methoxyethyl)-4-[3-[(1R)-1-[[2-methyl-5-(4-methylpiperazin-1-yl)benzoyl]amino]ethyl]phenyl]thiophene-2-carboxamide], for which the IC50 on SARS-CoV-2 PLpro (setting [2]) is below 2 µM. The “% Cell Viability” value in data set [1] (setting [3]) is recorded as 65.9%.

Turning to `COc1cc([C@@H](C)NC(=O)c2cc(N3CCN(C)CC3)ccc2C)ccc1OCc1ccccc1` [Example 184, N-[(1R)-1-(4-benzyloxy-3-methoxy-phenyl)ethyl]-2-methyl-5-(4-methylpiperazin-1-yl)benzamide], the IC50 at SARS-CoV-2 PLpro (setting [2]) was below 2 µM. Besides, the “% Cell Viability” value in data set [1] (setting [3]) stood at 51.3%.

For `COc1cc([C@@H](C)NC(=O)c2cc(N3C[C@H]4CC[C@@H](C3)N4)ccc2C)ccc1OCC1CC1` [Example 298, N-[(1R)-1-[4-(Cyclopropylmethoxy)-3-methoxy-phenyl]ethyl]-5-[(1R,5S)-3,8-diazabicyclo[3.2.1]octan-3-yl]-2-methyl-benzamide], on SARS-CoV-2 PLpro, the IC50 was below 2 µM. The “% Cell Viability” value in data set [1] (human, 24 h, 100 μM) was found to be 43.9%.

On to `Cc1ccc(N2CCN(C)CC2)cc1C(=O)N[C@H](C)c1ccc(-c2ccc(CO)cc2)cc1` [Example 54, N-[(1R)-1-[4-[4-(Hydroxymethyl)phenyl]phenyl]ethyl]-2-methyl-5-(4-methylpiperazin-1-yl)benzamide], for which the IC50 at SARS-CoV-2 PLpro (setting [2]) was below 10 µM. Also, the “% Cell Viability” value in data set [1] (setting [3]) came out at 76.0%.

Consider `Cc1ccc(N2CCN(C)CC2)cc1C(=O)N[C@H](C)c1cccc(-c2cccc(CN(C)C)c2)c1` [Example 68, N-[(1R)-1-[3-[3-[(Dimethylamino)methyl]phenyl]phenyl]ethyl]-2-methyl-5-(4-methylpiperazin-1-yl)benzamide Dihydrochloride Salt], for which, at SARS-CoV-2 PLpro (setting [2]), the IC50 was below 2 µM. In data set [1] (setting [3]), the “% Cell Viability” value amounted to 48.9%.

`COc1ccc([C@@H](C)NC(=O)c2cc(N3CC4CN(C)CC4C3)ccc2C)cc1-c1cnn(C)c1` (stereo partly drawn) [Example 240, N-[(1R)-1-[4-Methoxy-3-(1-methylpyrazol-4-yl)phenyl]ethyl]-2-methyl-5-(2-methyl-1,3,3a,4,6,6a-hexahydropyrrolo[3,4-c]pyrrol-5-yl)benzamide]: the IC50 at SARS-CoV-2 PLpro (setting [2]) was below 2 µM. Besides, the “% Cell Viability” value in data set [1] (setting [3]) is on record as 64.3%.

On to `C[C@@H](NC(=O)c1cccc(N2CCN(C)CC2)c1)c1cccc2ccccc12` [Example 2, 3-(4-Methylpiperazin-1-yl)-N-[(1R)-1-(1-naphthyl)ethyl]benzamide], for which the IC50 on SARS-CoV-2 PLpro (setting [2]) was below 2 µM. Besides, the “% Cell Viability” value in data set [1] (setting [3]) was 20.3%.

On to `COc1ccc([C@@H](C)NC(=O)c2cc(N3CCN(C)CC3)ccc2C)cc1-c1cnn(CCO)c1` [Example 284, N-[(1R)-1-[3-[1-(2-Hydroxyethyl)pyrazol-4-yl]-4-methoxy-phenyl]ethyl]-2-methyl-5-(4-methylpiperazin-1-yl)benzamide], for which, on SARS-CoV-2 PLpro (setting [2]), the IC50 was below 2 µM. Also, the “% Cell Viability” value in data set [1] (setting [3]) came out at 101.3%.

With `COc1cc(-c2ccnn2C)cc([C@@H](C)NC(=O)c2cc(N3C[C@H]4C[C@@H]3CN4C)ccc2C)c1` [Example 248, N-[(1R)-1-[3-Methoxy-5-(2-methylpyrazol-3-yl)phenyl]ethyl]-2-methyl-5-[(1R,4R)-5-methyl-2,5-diazabicyclo[2.2.1]heptan-2-yl]benzamide], the IC50 on SARS-CoV-2 PLpro (setting [2]) is below 2 µM. The “% Cell Viability” value in data set [1] (setting [3]) is recorded as 55.3%.

Consider `Cc1ccc(N2CCN(C)CC2)cc1C(=O)N[C@H](C)c1cccc(-c2cccc(C(O)CO)c2)c1` (stereo partly drawn) [Example 71, N-[(1R)-1-[3-[3-(1,2-Dihydroxyethyl)phenyl]phenyl]ethyl]-2-methyl-5-(4-methylpiperazin-1-yl)benzamide], for which the IC50 on SARS-CoV-2 PLpro (setting [2]) was below 2 µM. In addition, the “% Cell Viability” value in data set [1] (setting [3]) came out at 68.4%.

Consider `COc1ccc([C@@H](C)NC(=O)c2cc(N3CCN(C)CC3)ccc2C)cc1` [Example 30, N-[(1R)-1-(4-Methoxyphenyl)ethyl]-2-methyl-5-(4-methylpiperazin-1-yl)benzamide], for which the IC50 at SARS-CoV-2 PLpro (setting [2]) was below 10 µM. In data set [1] (setting [3]), the “% Cell Viability” value was 102.3%.

On to `C[C@@H](NC(=O)c1cc(C2CCNC2)ccc1Cl)c1cccc2ccccc12` (stereo partly drawn) [Example 147, 2-chloro-N-[(1R)-1-(1-naphthyl)ethyl]-5-pyrrolidin-3-yl-benzamide], for which, at SARS-CoV-2 PLpro (setting [2]), the IC50 was below 5 µM. For the same compound, in data set [1] (setting [3]), the “% Cell Viability” value is on record as 0.8%.

Regarding `Cc1ccc(N2CCN(C)CC2)cc1C(=O)N[C@H](C)c1cccc(C(=O)N(C)C)c1` [Example 311, N-[(1R)-1-[3-(Dimethylcarbamoyl)phenyl]ethyl]-2-methyl-5-(4-methylpiperazin-1-yl)benzamide], the IC50 at SARS-CoV-2 PLpro (setting [2]) was below 20 µM. Also, in data set [1] (setting [3]), the “% Cell Viability” value was 130.7%.

As for `Cc1ccc(N2CCN(C)CC2)nc1C(=O)N[C@H](C)c1cccc2ccccc12` [Example 15, 3-Methyl-6-(4-methylpiperazin-1-yl)-N-[(1R)-1-(1-naphthyl)ethyl]pyridine-2-carboxamide hydrochloride], the IC50 at SARS-CoV-2 PLpro (setting [2]) is below 10 µM. In data set [1] (setting [3]), the “% Cell Viability” value was determined as 76.1%.

As for `COc1ccc([C@@H](C)NC(=O)c2cc(N3CCN(C)CC3)ccc2C)cc1O` [Example 291, N-[(1R)-1-(3-Hydroxy-4-methoxy-phenyl)ethyl]-2-methyl-5-(4-methylpiperazin-1-yl)benzamide], on SARS-CoV-2 PLpro (setting [2]), the IC50 was below 5 µM. Also, the “% Cell Viability” value in data set [1] (setting [3]) is given as 97.4%.

On SARS-CoV-2 PLpro, `COc1cc(-c2cnn(C)c2)cc([C@@H](C)NC(=O)c2cc(N3C[C@H]4CC[C@@H](C3)N4CC3CC3)ccc2C)c1` [Example 274, 5-[(1R,5S)-8-(Cyclopropylmethyl)-3,8-diazabicyclo[3.2.1]octan-3-yl]-N-[(1R)-1-[3-methoxy-5-(1-methylpyrazol-4-yl)phenyl]ethyl]-2-methyl-benzamide] gave an IC50 below 2 µM. The “% Cell Viability” value in data set [1] (human, 24 h, 100 μM) worked out at 38.7%.

`Cc1ccc(N2CCN(C)CC2)cc1C(=O)N[C@H](C)c1cccc(-c2nccs2)c1` [Example 65, 2-Methyl-5-(4-methylpiperazin-1-yl)-N-[(1R)-1-(3-thiazol-2-ylphenyl)ethyl]benzamide]: on SARS-CoV-2 PLpro (setting [2]), the IC50 is below 2 µM. The “% Cell Viability” value in data set [1] (setting [3]) is 77.6%.

Turning to `Cc1ccc(N2CCNCC2)cc1C(=O)N[C@H](C)c1cccc2ccccc12` [Example 108, 2-Methyl-N-[(1R)-1-(1-naphthyl)ethyl]-5-piperazin-1-yl-benzamide], on SARS-CoV-2 PLpro (setting [2]), the IC50 is below 2 µM. Moreover, the “% Cell Viability” value in data set [1] (setting [3]) is reported as 2.1%.

On to `COc1ccc([C@@H](C)NC(=O)c2cc(N3C[C@H]4C[C@@H]3CN4C)ccc2C)cc1Br` [Example 181, N-[(1R)-1-(3-Bromo-4-methoxy-phenyl)ethyl]-2-methyl-5-[(1R,4R)-5-methyl-2,5-diazabicyclo[2.2.1]heptan-2-yl]benzamide], for which, on SARS-CoV-2 PLpro (setting [2]), the IC50 is below 2 µM. In addition, the “% Cell Viability” value in data set [1] (setting [3]) was found to be 18.9%.
